pEC50, pIC50: −log10 of the molar value. Read-outs that look alike come from different tables or passages of the source.
Assays:
mouse P23H opsin = biological target: T1, mouse P23H opsin (Mus musculus, UniProt P15409, P23H); assay: High-content imaging analysis of P23H opsin immunostaining in NIH3T3-(P23H opsin/GFP) cells; type: cell-based
T1 construct: expressed in transfected cells
Method: To characterize the effect of active compounds on the localization of P23H-mutant opsin in mammalian cells, an image-based assay was used with cells immunostained for WT or P23H-mutant opsin protein[18]. Briefly, NIH3T3-(P23H opsin/GFP) or NIH3T3-(WT-opsin/GFP) cells were seeded at 5000 cells per well in a 384-well cell-carrier plate (PerkinElmer) and incubated at 37 °C with 5% CO2 for 2 h. Cells were treated with compounds as described for the β-Gal fragment complementation assay and incubated in assay medium for 24 h. The assay medium then was aspirated, and cells were fixed with 4% paraformaldehyde at 20 µL per well for 20 min at RT. Cells were immunostained in one of two ways: cell membranes were either permeabilized with 0.1% Triton X-100 for 15 min or left intact and then were incubated with 10% goat serum (Life Technologies). To detect opsin on the cell plasma membrane only, intact cells were immunostained with 20 µL per well of 20 µg mL^−1 B6-30 anti-rhodopsin antibody that recognizes the N-terminal epitope on the extracellular side of rhodopsin. To detect total opsin, cells were permeabilized with Triton X-100 and immunostained with 50 µg mL^−1 1D4 anti-rhodopsin antibody specific for the C-terminal epitope on the intracellular side of rhodopsin. Opsin immunostaining was visualized by incubating cells with 5 µg mL^−1 Cy3-conjugated goat anti-mouse IgG antibody. Three washes with phosphate-buffered saline (PBS: 10 mM Na2HPO4, 1.8 mM KH2PO4, pH 7.4, 137 mM NaCl, and 2.7 mM KCl) were performed between each step of incubation with antibody. In the last wash with PBS, DAPI was added to each well at 300 nM. Fluorescence images were obtained with the Operetta High Content Imaging System (PerkinElmer) using a ×20 long objective. Five fields were taken of each well for cell images using three channels for fluorescence: GFP (100 ms), Cy3 (300 ms), and DAPI (50 ms). Images were analyzed with Acapella software from the Columbus data storage and analysis system (PerkinElmer)[18]. For cells immunostained with opsin on the non-permeabilized cell membrane only, an average of total fluorescence intensity of Cy3 per cell was used to quantify opsin in each well of the 384-well plate. For cells immunostained with opsin in permeabilized whole cells, an average ratio of Cy3 intensity on the cell plasma membrane (PM) to that of the entire cell (opsin ratio PM-to-total) was calculated for each well of a 384-well plate to quantify opsin transport to the plasma membrane. The plasma membrane was defined within ± 5% of the cell border.

P23H opsin = biological target: T2, P23H opsin (Mus musculus, UniProt P15409, P23H); assay: Immunoblot of P23H opsin glycosylation in NIH3T3 cell lysates; type: cell-based; set-up: key to Improved glycosylation: n = no; y = yes; settings: for Improved glycosylation: P23H opsin; for effect on glycosylation of P23H opsin (in words): immunoblot, PNGaseF, 10 µM YC-001, 5 µM 9-cis-retinal, 10 µM scriptaid
T2 construct: expressed in transfected cells
Method: NIH3T3-(P23H opsin/GFP) or NIH3T3-(WT-opsin/GFP) cells were seeded in a 48-well plate (Corning Costar) at 3.2 × 10^5 cells per well and incubated at 37 °C with 5% CO2 for 2 h. One hundred-µL of assay medium containing a compound at 5× its final concentration was added to each well. The plate was gently shaken for 5 s before further incubation at 37 °C with 5% CO2 for 24 h. The assay medium then was aspirated, and cells were lysed with 100 µL per well PBS containing 0.1% Triton X-100 and complete protease inhibitor cocktail (Roche, Basel, Switzerland) followed by sonication for 3 s. Protein concentrations were determined with the Bradford assay. For PNGaseF catalyzed deglycosylation, 3 µL of PNGaseF (1500 U, NEB) was added to the cell lysate and the mixture was incubated at room temperature for 1 h before immunoblotting. For NIH3T3-(P23H opsin/GFP) cells, 15 µg of total protein were loaded per well onto an SDS-polyacrylamide gel; whereas for NIH3T3-(WT-opsin/GFP) cells, 5 µg of total protein was loaded per well. Opsin protein was immunostained with 0.2 μg mL^−1 horseradish peroxidase-conjugated 1D4 anti-rhodopsin antibody. Band intensities were measured with ImageJ software (http://imagej.nih.gov/ij/; National the Institutes of Health, Bethesda, MD, USA) and normalized to a glyceraldehyde 3-phosphate dehydrogenase (GAPDH) loading control. Full scans of immunoblotted membranes are shown in Supplementary Fig. 8.

bovine opsin = biological target: T3, bovine opsin (Bos taurus, UniProt P02699); assay: Isorhodopsin pigment regeneration in ROS disc membranes (absorbance at 487 nm); type: biochemical; settings: for competition with 9-cis-retinal in the chromophore-binding pocket: added simultaneously or sequentially with 9-cis-retinal
T3 construct: ROS membranes were isolated from bovine retinas under dim red light; from tissue; host or cells: bovine retina, rod outer segment (ROS) disc membranes, bleached with hydroxylamine
T3 sequence (P02699 whole entry): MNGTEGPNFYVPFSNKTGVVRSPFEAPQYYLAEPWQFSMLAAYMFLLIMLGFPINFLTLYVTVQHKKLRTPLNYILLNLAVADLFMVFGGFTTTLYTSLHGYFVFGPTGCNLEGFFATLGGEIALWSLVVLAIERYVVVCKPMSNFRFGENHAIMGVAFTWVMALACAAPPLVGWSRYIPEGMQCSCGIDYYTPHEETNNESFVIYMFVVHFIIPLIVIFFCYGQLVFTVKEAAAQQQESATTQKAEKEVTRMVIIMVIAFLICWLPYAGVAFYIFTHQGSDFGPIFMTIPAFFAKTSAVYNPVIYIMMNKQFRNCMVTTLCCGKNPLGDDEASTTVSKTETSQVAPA
Method: ROS membranes containing opsin were suspended in buffer composed of 20 mM BTP, pH 7.5, and 100 mM NaCl at a final concentration of 2.5 µM. […] Membranes then were solubilized with 20 mM DDM for 10 min at RT and UV–visible spectra of these samples were measured. To follow the kinetics of isorhodopsin regeneration, opsin membranes were treated with 0, 20, or 60 µM YC-001 for 15 min at RT. […] UV–visible spectra of the samples were measured every 2 min until 2 h of reaction time at RT. Each condition was repeated three times. The time course of isorhodopsin regeneration was fitted by a second-order exponential decay and apparent half-lives were obtained at the time when reaction reached half of the end-point product.
Alternatively, opsin incubated with the above ligands was purified by 1D4-immunoaffinity chromatography. […] After washing, opsin samples were eluted by addition of 1D4 peptide ([…]) to the above buffer and their spectra were measured with a UV–visible spectrophotometer.
To test whether YC-001 stabilizes rod opsin, opsin samples (2.5 µM) were incubated with or without 10 µM YC-001 for 15 min, followed by solubilization in 20 mM DDM. […] UV–visible spectra of these samples then were measured.

rod opsin = biological target: T4, rod opsin (Mus musculus, UniProt P15409); assay: cAMP quantification assay in NIH3T3-(WT-opsin/GFP) cells with forskolin; type: cell-based
T4 construct: expressed in transfected cells
Method: NIH3T3-(Opsin/GFP) and NIH3T3-(GFP) were plated in two 96-well plates at a density of 50,000 cells per well in 100 µL of DMEM medium containing 10% FBS and antibiotics. After 24 h, cells were washed with Krebs Ringer bicarbonate buffer containing glucose (KRBG), and incubated with KRBG buffer containing 100 µM cAMP specific phosphodiesterase inhibitor, Ro 20–1724 (Tocris, UK) at RT for 10 min. […] While one plate then was wrapped with aluminum foil, the second plate was exposed to regular room light. Both plates were kept in a cell culture incubator for 15 min at 37 °C in 5% CO2. Levels of accumulated cAMP were detected with the Catchpoint cAMP fluorescent assay kit (Molecular Devices, Sunnyvale, CA USA) and the fluorescence with excitation/emission at 530/590 nm was read with a Flexstation3 plate reader (Molecular Devices) as described in the manufacturer’s protocol.

NIH3T3 cells = assay: Cell number in high-content imaging of NIH3T3 cells; type: cell-based, mouse
Method: To characterize the effect of active compounds on the localization of P23H-mutant opsin in mammalian cells, an image-based assay was used with cells immunostained for WT or P23H-mutant opsin protein[18]. Briefly, NIH3T3-(P23H opsin/GFP) or NIH3T3-(WT-opsin/GFP) cells were seeded at 5000 cells per well in a 384-well cell-carrier plate (PerkinElmer) and incubated at 37 °C with 5% CO2 for 2 h. Cells were treated with compounds as described for the β-Gal fragment complementation assay and incubated in assay medium for 24 h. The assay medium then was aspirated, and cells were fixed with 4% paraformaldehyde at 20 µL per well for 20 min at RT. […] Fluorescence images were obtained with the Operetta High Content Imaging System (PerkinElmer) using a ×20 long objective. Five fields were taken of each well for cell images using three channels for fluorescence: GFP (100 ms), Cy3 (300 ms), and DAPI (50 ms). Images were analyzed with Acapella software from the Columbus data storage and analysis system (PerkinElmer)[18]. For cells immunostained with opsin on the non-permeabilized cell membrane only, an average of total fluorescence intensity of Cy3 per cell was used to quantify opsin in each well of the 384-well plate. […]

[1] = cell-surface immunostaining, non-permeabilized, Fig. 2j, read-out: EC50, opsin on the plasma membrane (Opsin INT)
[2] = ratio of P23H rod opsin fluorescence on plasma membrane to whole cell
[3] = ratio of P23H rod opsin fluorescence on plasma membrane to whole cell, read-out: Immunostaining HCS MEM-Total ratio EC50

SMILES	A1 (low plateau), Opsin INT (mouse P23H opsin; Fig. 2j)	A2 (high plateau), Opsin INT (mouse P23H opsin; Fig. 2j)	A1 (low plateau), Opsin ratio PM-to-total (mouse P23H opsin; Fig. 2l)	A2 (high plateau), Opsin ratio PM-to-total (mouse P23H opsin; Fig. 2l)	A1 (low plateau), Opsin ratio ER-to-total (mouse P23H opsin; Fig. 2n)	A2 (high plateau), Opsin ratio ER-to-total (mouse P23H opsin; Fig. 2n)	pEC50 (mouse P23H opsin; [1])	Immunostaining HCS MEM-Total ratio Max (fit) (mouse P23H opsin; [2])	pEC50 (mouse P23H opsin; [3])	Improved glycosylation (P23H opsin)	effect on glycosylation of P23H opsin (in words) (P23H opsin)	competition with 9-cis-retinal in the chromophore-binding pocket (bovine opsin)	further results
O=C1OCC(c2ccc(Cl)s2)=C1c1cccs1 [YC-001]	218	270	0.172	0.202	0.236	0.248	5.49	0.030	5.56	y	improvement of glycosylation	competing with 9-cis-retinal in a short timeframe	pEC50 (mouse P23H opsin; whole-cell immunostaining, Fig. 2n, read-out: EC50, Opsin ratio ER-to-total): 5.67; half-life of rod opsin aging at RT (bovine opsin; 10 µM YC-001 vs opsin alone, 0-6 h): significantly longer half-life; total amount of regenerated isorhodopsin pigment at the end of the reaction (bovine opsin; increasing YC-001, sequential 9-cis-retinal): did not affect; reversibility of interaction with opsin (bovine opsin; opsin/isorhodopsin purification after treatment): reversible; pIC50 (bovine opsin; read-out: IC50, regenerated isorhodopsin): 4.94; pEC50 (rod opsin; YC-001 alone, dark or light, read-out: EC50, increase in cAMP levels): 5.09; pEC50 (rod opsin; YC-001 with 1 μM 9-cis-retinal, under light, read-out: EC50, increase in cAMP levels): 4.52; effect on cell number (NIH3T3 cells; up to 40 µM): did not affect cell number
O=C(CCCCCN1C(=O)c2cccc3cccc(c23)C1=O)NO [Scriptaid, reference compound]	–	–	–	–	–	–	–	0.070	6.42	n	does not affect the glycosylation	does not compete with 9-cis-retinal	–
CC1=C(/C=C/C(C)=C\C=C\C(C)=C\C=O)C(C)(C)CCC1 [9-cis-retinal, reference compound]	219	275	0.167	0.186	0.240	0.255	6.42	0.019	–	y	improvement of glycosylation	–	pEC50 (mouse P23H opsin; whole-cell immunostaining, Fig. 2l, read-out: EC50, Opsin ratio PM-to-total): 5.92; fold increase in the EC50 of 9-cis-retinal (rod opsin; 40 μM YC-001 co-treatment vs 9-cis-retinal alone): 3 fold; pEC50 (rod opsin; 9-cis-retinal alone, under light, read-out: EC50, cAMP levels): 7.12; concentration that euthanized most cells (NIH3T3 cells; 24 h treatment): higher than 10 µM
